{
  "source": "patent US11440939B2",
  "about": "“Anticancer peptides” (IDP DISCOVERY PHARMA, S.L., priority 2017, dated 2022)",
  "key": {"NCI-H187": {"system": "NCI-H187", "type": "cell-based", "conditions": "72 h", "description": "NCI-H187, epithelial (small cell lung cancer, SCLC), ATCC-CRL-5804;\nCell line MCF-7 was cultured in incubator under CO2 (6%) at 37° C. in DMEM high glucose (Dulbecco's Modified Eagle Solution, Gibco-BRL 31966-21) medium with 10% fetal bovine serum inactivated (FBS) (Gibco-BRL 10106-169). Cell lines HL-60, NCI-H524, NCI-H526, NCI-H69, NCI-H82, NCI-H187 and H5B were cultured in an incubator at 37° C. in RPMI-1640 (Sigma R8758) medium with 10% of fetal bovine serum inactivated (FBS) and 2 mM glutamine (Sigma G7513). Cell line NCI-H510A was cultured in incubator in F12K medium with 10% of fetal bovine serum inactivated (FBS). Cell line GBM-18 and GBM-27 were cultured in incubator under CO2 (6%) at 37° C. in complete medium (Neurobasal+B27+Glutamax+Growth factors).\nDuring the amplification step and the assays, adherent cells were rinsed with DPBS (Dulbecco's Phosphate Buffered Saline, Sigma D1283) three times and afterward treated for 5 minutes with trypsin ([…]) (Gibco-BRL, 15400054) in solution of DPBS at 37° C., and, once detached, transferred in the culturing medium. No-adherent cells were centrifuged and transferred in the culturing medium. Cells were counted in a Neubauer chamber after labelling with Tripan-Blue.\nMCF-7, NCI-H187, NCI-H69, NCI-H526 and H5B cells were seeded at a density of 5000 cells/well; NCI-H524 and NCI-H82 were seeded at a density of 2500 cells/well; HL-60 and NCI-H510A at 10000 cells/well in 100 μl of medium in 96 well plates. After 24 h, the compounds to be tested were added to calculate the dose/response curve at the starting concentration of 100 μM with serial dilutions (1:1). Controls were the untreated cells. Each experiment was performed in triplicate.\nCells were incubated during 72 h in incubator under CO2 atmosphere at 37° C. Cell viability was measured by means of MTT (3-(4,5-dimethylthiazol-2-yl)-2,5-diphenyltetrazolium bromide) assay, Alamar Blue® (Biosource DAL1100) and Hexosaminidase activity test, consecutively, following manufacturer instructions.\nMTT: 1. Stock solution of MTT (475989 Calbiochem) was 5 mg/ml in PBS 1×. As negative control (experiment noise) 3 wells were treated with 20 μl/well of a solution of SDS 10% in H2O. The same control was used for Alamar Blue/Hexosaminidase. 10 μl/well of MTT solution were added and the plate was incubated for 3-4 hr. The medium was discarded and 100 μl of extracting buffer (PBS 1×, 15% SDS, 50% […] N,N-Dimethylformamide, pH 4,7) were added to each well. Plates were incubated for 16 h at room temperature under orbital shaking. Absorbance at 570 nm was finally measured.\nAlamar Blue: 10 μl Alamar Blue solution was added to each well and the plates were incubated for […] in the incubator. Fluorescence ratio at 535/590 (excitation/emission) was measured in Cytofluor (Millipore) fluorimeter. Blank control was determined by lysis of untreated cells with con 2% of Triton X100, right before adding Alamar Blue solution.\nHexosaminidase activity test: after Alamar Blue lecture, medium was discarded and plates were rinsed once with PBS. 60 μl hexosaminidase substrate (p-nitrophenol-N-acetyl-beta-D-glucosamide 7.5 mM [Sigma N-9376], sodium citrate 0.1 M, pH 5.0, 0.25% Triton X-100) was added to each well and the plates were incubated at 37° C. for 2-5 h, according to the cell type (hexosaminidase activity changes according to the cell type). […] Blank control was the same as described before.\nData analysis was performed calculating the percentage of cell viability normalized vs. the values of negative control, which was considered equal to 100%. The dose/response curve was fitted through the sigmoidal equation dose-response (variable slope) and the EC50 values were calculated as follow: Y=Bottom+(Top−Bottom)/(1+10^{[(Log EC50−X)*HillSlope]},"}, "[1]": {"assay": "Stability test in human plasma, LC MS/MS", "type": "in vitro ADME", "conditions": "37° C.", "description": "For the preparation of stock solutions, H14 was dissolved in water/acetonitrile (95/5, v/v) containing 0.1% formic acid to a concentration of 1.00 mg/mL. Further serial dilutions were carried out in plasma. The concentrations were calculated under consideration of purity.\nFor preparation of plasma samples, the human blank plasma were fortified with the stock solution using a ratio of 1:100 to obtain a sample with 10.0 μg/mL which was subsequently serial-diluted in human blank plasma.\nA volume of 300 μL of human plasma samples for the two peptide concentrations (100 ng/mL and 1000 ng/mL) were transferred to an empty 96 deep well plate. The plate was incubated at 37° C. in a thermomixer at approximately 700 rpm. At selected incubation time points of 0 h, 1 h, 2 h, 4 h, 6 h and 24 h, aliquots of plasma were precipitated with acetonitrile containing internal standard. To an aliquot of 20 μL human plasma samples, 40 μL of acetonitrile containing 1% formic acid and the internal standard was added. After vortex mixing for a few seconds, the samples were centrifuged for about 10 minutes at approximately 50000 g. The temperature of the centrifuge was set to 8° C. An aliquot of 30 μL of the supernatant was transferred to an autosampler vial for analysis using LC MS/MS.\nThe quantification of H14 was performed by column separation with reverse phase chromatography followed by detection with triple stage quadrupole MS/MS in the selected reaction monitoring mode."}},
  "note": "Numbered stars: 1 amine (or outer) side, 2 acyl side, 3 side chain; on linkers, the order of the positions; unused ones are H or OH. Bridge positions count the residues as written; N and C are the ends. Square brackets hold non-standard residues; d marks the D form. Peptide text beside a SMILES is read from it. ξ: configuration not given here. ξαMeNle(6-ylidene) = CC(CCCC=[*:3])(N[*:1])C(=O)[*:2]; X1 = CC(CCCCCCC=[*:3])(N[*:1])C(=O)[*:2]",
  "data": [
    {"smiles": "CC(C)C[C@H](NC(=O)[C@H](CCCCN)NC(=O)[C@@H](NC(=O)[C@@H](N)CCCNC(=N)N)C(C)C)C(=O)N[C@H](C(=O)N[C@@H](CC(N)=O)C(=O)N[C@@H](CC(C)C)C(=O)NC1(C)CCCCCCC=CCCCC(C)(C(=O)N[C@H](C(=O)N2CCC[C@H]2C(N)=O)C(C)C)NC(=O)[C@H](CCC(=O)O)NC(=O)[C@H](CCCNC(=N)N)NC(=O)[C@H](CC(C)C)NC(=O)[C@H]([C@@H](C)O)NC(=O)[C@H](C)NC(=O)[C@H](Cc2ccccc2)NC1=O)C(C)C", "note": "(stereo partly shown) [H14] (H-RVKLVNL[X1]FATLRE[ξαMeNle(6-ylidene)]VP-NH2; staple 8-15; N-terminus and C-terminus assumed)", "values": [
      {"measurement": "EC50", "setting": "NCI-H187", "value": "~10", "unit": "µM"},
      {"measurement": "H14 amount (% peak area)", "setting": "[1]; 100 ng/mL, 0 h", "value": 100, "unit": "% peak area"},
      {"measurement": "remaining at 1 h, 100 ng/mL", "setting": "[1]; 100 ng/mL, 1 h, read-out: H14 amount (% peak area)", "value": 96.1, "unit": "%"},
      {"measurement": "H14 amount (% peak area)", "setting": "[1]; 100 ng/mL, 2 h", "value": 96.1, "unit": "% peak area"},
      {"measurement": "remaining at 4 h, 100 ng/mL", "setting": "[1]; 100 ng/mL, 4 h, read-out: H14 amount (% peak area)", "value": 102, "unit": "%"},
      {"measurement": "remaining at 6 h, 100 ng/mL", "setting": "[1]; 100 ng/mL, 6 h, read-out: H14 amount (% peak area)", "value": 97.2, "unit": "%"},
      {"measurement": "remaining at 24 h, 100 ng/mL", "setting": "[1]; 100 ng/mL, 24 h, read-out: H14 amount (% peak area)", "value": 108, "unit": "%"},
      {"measurement": "H14 amount (% peak area)", "setting": "[1]; 1000 ng/mL, 0 h", "value": 100, "unit": "% peak area"},
      {"measurement": "remaining at 1 h, 1000 ng/mL", "setting": "[1]; 1000 ng/mL, 1 h, read-out: H14 amount (% peak area)", "value": 101, "unit": "%"},
      {"measurement": "remaining at 2 h, 1000 ng/mL", "setting": "[1]; 1000 ng/mL, 2 h, read-out: H14 amount (% peak area)", "value": 94.9, "unit": "%"},
      {"measurement": "remaining at 4 h, 1000 ng/mL", "setting": "[1]; 1000 ng/mL, 4 h, read-out: H14 amount (% peak area)", "value": 95.4, "unit": "%"},
      {"measurement": "remaining at 6 h, 1000 ng/mL", "setting": "[1]; 1000 ng/mL, 6 h, read-out: H14 amount (% peak area)", "value": 99.9, "unit": "%"},
      {"measurement": "remaining at 24 h, 1000 ng/mL", "setting": "[1]; 1000 ng/mL, 24 h, read-out: H14 amount (% peak area)", "value": 101, "unit": "%"}
    ]}
  ]
}
